Measurements reported in patent US20240391862A1, “(1,4,5-TRISUBSTITUTED-1H-PYRAZOL-3-YL)OXY-2-ALKOXY ALKYL ACIDS AND THEIR DERIVATIVES, THEIR SALTS AND THEIR USE AS HERBICIDAL AGENTS” (Bayer AKtiengesellschaft, priority 2021, published 2024).

Tests used:
[1] = test system: KCHSC; assay: Post-emergence herbicidal effect, greenhouse pot test; assay type: in vivo
Procedure, shortened: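 Visual rating of activity against untreated plants (100% = plants died, 0% = no effect), done about 3 weeks after treatment. Compounds applied at 20–320 g/ha as aqueous spray (600 l/ha, 0.5% additive) from WP or EC formulations onto one-leaf-stage plants grown in sandy loam under greenhouse conditions.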

[2] = test system: DIGSA; assay: as above; assay type: in vivo, Digitaria sanguinalis; conditions: 320 g/ha, visual rating about 3 weeks after treatment
Procedure, shortened: (§1)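 Visual % activity scored roughly 3 weeks post-spray against untreated plants, where 100% means death and 0% equals control. Plants were treated at the one-leaf stage, 2 to 3 weeks after sowing in sandy loam, at 20 to 320 g/ha.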

[3] = test system: POLCO; assay: as above; assay type: in vivo, Fallopia convolvulus
Procedure, shortened: as §1

[4] = test system: LOLRI; assay: as above; assay type: in vivo, Lolium rigidum
Procedure, shortened: as §1

[5] = test system: ABUTH; assay: as above; assay type: in vivo, Abutilon theophrasti; conditions: visual rating about 3 weeks after treatment
Procedure, shortened: as §1

[6] = test system: ECHCG; assay: as above; assay type: in vivo, Echinochloa crus-galli
Procedure, shortened: as §1

[7] = test system: PHBPU; assay: as above; assay type: in vivo, Ipomoea purpurea
Procedure, shortened: as §1

[8] = test system: SETVI; assay: as above; assay type: in vivo, Setaria viridis
Procedure, shortened: as §1

[9] = test system: AVEFA; assay: as above; assay type: in vivo, Avena fatua; conditions: visual rating about 3 weeks after treatment
Procedure, shortened: as §1

[10] = test system: ALOMY; assay: as above; assay type: in vivo, Alopecurus myosuroides
Procedure, shortened: as §1

[11] = test system: ZEAMX; assay: Post-emergence herbicidal effect and crop plant compatibility, greenhouse pot test; assay type: in vivo, Zea mays; conditions: one-leaf stage, rated visually after about 3 weeks vs untreated controls
Procedure, shortened: as §1

[12] = test system: VERPE; assay: Post-emergence herbicidal effect, greenhouse pot test; assay type: in vivo, Veronica persica
Procedure, shortened: as §1

[13] = test system: VIOTR; assay: as above; assay type: in vivo, Viola tricolor
Procedure, shortened: as §1

[14] = test system: MATIN; assay: as above; assay type: in vivo, Tripleurospermum inodorum
Procedure, shortened: as §1

[15] = 320 g/ha, visual rating about 3 weeks after treatment

| SMILES | Post-emergence effect against DIGSA [2] [%] | Post-emergence effect against POLCO in % ([3]; 320 g/ha) [%] | Post-emergence effect against LOLRI in % ([4]; 320 g/ha) [%] | Post-emergence effect against ABUTH ([5]; 80 g/ha) [%] | Post-emergence effect against ABUTH ([5]; 320 g/ha) [%] | Post-emergence effect against ECHCG in % ([6]; 80 g/ha) [%] | Post-emergence effect against ECHCG in % ([6]; 320 g/ha) [%] | Post-emergence effect against PHBPU in % ([7]; 80 g/ha) [%] | Post-emergence effect against PHBPU in % ([7]; 320 g/ha) [%] | Post-emergence effect against SETVI in % ([8]; 320 g/ha) [%] | Post-emergence effect against AVEFA ([9]; 80 g/ha) [%] | Post-emergence effect against AVEFA ([9]; 320 g/ha) [%] | Post-emergence effect against ALOMY [10, 15] [%] | Post-emergence effect against VERPE in % ([12]; 320 g/ha) [%] | Post-emergence effect against VIOTR in % ([13]; 80 g/ha) [%] | Post-emergence effect against VIOTR in % ([13]; 320 g/ha) [%] | other results |
| --- | --- | --- | --- | --- | --- | --- | --- | --- | --- | --- | --- | --- | --- | --- | --- | --- | --- |
| COC(=O)C(OC)Oc1nn(-c2ncccc2F)c(-c2ccc(F)nc2)c1C1CC1 (stereo not shown) [Example I-108] | 90 | 80 | 90 | 80 | 90 | 90 | 90 | 80 | 90 | 90 | 90 | 90 | 100 | 80 | 90 | 90 | Post-emergence effect against KCHSC in % ([1]; 320 g/ha): 90%; pest or weed control at 80 g/ha ([1]; 504 h, 80 g/ha, read-out: Post-emergence effect against KCHSC in %): 90%; pest or weed control at 80 g/ha ([10]; Alopecurus myosuroides, 504 h, 80 g/ha, visual rating about 3 weeks after treatment, read-out: Post-emergence effect against ALOMY): 90%; Post-emergence effect at 20 g/ha against ZEAMX in % ([11]; 20 g/ha): 0%; Post-emergence effect at 80 g/ha against ZEAMX in % ([11]; 80 g/ha): 0%; plant injury at 320 g/ha ([11]; Zea mays, 504 h, 320 g/ha, read-out: Post-emergence effect at 320 g/ha against ZEAMX in %): 0%; pest or weed control at 80 g/ha ([12]; Veronica persica, 504 h, 80 g/ha, read-out: Post-emergence effect against VERPE in %): 80% |
| COC(=O)C(OC)Oc1nn(-c2cc(F)ccc2F)c(-c2cncc(F)c2)c1C1CC1 (stereo not shown) [Example I-112] | 80 | 80 | 90 | 80 | 80 | 90 | 90 | 90 | 90 | 80 | 90 | 90 | 90 | 80 | 80 | 80 | pest or weed control at 320 g/ha ([1]; 504 h, 320 g/ha, read-out: Post-emergence effect against KCHSC in %): 80%; Post-emergence effect against POLCO in % ([3]; 80 g/ha): 80%; Post-emergence effect against LOLRI in % ([4]; 80 g/ha): 90%; pest or weed control at 20 g/ha ([5]; Abutilon theophrasti, 504 h, 20 g/ha, read-out: Post-emergence effect against ABUTH): 80%; Post-emergence effect against ECHCG ([6]; 20 g/ha, visual rating about 3 weeks after treatment): 90%; Post-emergence effect against PHBPU in % ([7]; 20 g/ha): 90%; Post-emergence effect against SETVI in % ([8]; 80 g/ha): 80%; Post-emergence effect against MATIN in % ([14]; 20 g/ha): 80%; Post-emergence effect against MATIN in % ([14]; 80 g/ha): 80%; Post-emergence effect against MATIN in % ([14]; 320 g/ha): 80%; pest or weed control at 20 g/ha ([9]; Avena fatua, 504 h, 20 g/ha, read-out: Post-emergence effect against AVEFA): 90%; Post-emergence effect at 20 g/ha against ALOMY in % ([10]; 20 g/ha, one-leaf stage, rated visually after about 3 weeks vs untreated controls): 80%; Post-emergence effect against ALOMY ([10]; 80 g/ha, visual rating about 3 weeks after treatment): 90%; Post-emergence effect against VERPE in % ([12]; 20 g/ha): 80%; Post-emergence effect against VERPE in % ([12]; 80 g/ha): 80%; pest or weed control at 20 g/ha ([13]; Viola tricolor, 504 h, 20 g/ha, read-out: Post-emergence effect against VIOTR in %): 80% |
